# Patent US8192962B2, “Processes for detecting toxic substances” (Daikin Industries, Ltd., priority 2001, dated 2012)
# System: Unknown protein yeast genes
# Experiment: DNA chip mRNA expression in yeast, unknown protein yeast genes (Table 1)
# Assay type: cell-based, Saccharomyces cerevisiae S288C
# Description: Yeast (Saccharomyces cerevisiae S288C (α SUC2mal mel gap2 CUP1)) were incubated at 25° C. on YPD medium (yeast extract 1%, polypepton 2%, glucose 2%). One of toxic chemical substances was added to the cells at logarithmic growth phase, and the cells were further incubated for two hours. Cells were cultured without any chemical substance in the same condition, and were used as control. Concentrations of the chemical substances were defined to inhibit the growth of the yeast but not lead to death.
# After completion of the incubation, the culture was centrifuged to collect the cells. To the cells, sodium acetate buffer (50 mM sodium acetate, 10 mM EDTA, 1% SDS) was added, and the mixture was shaken at 65° C. for five minutes, followed by returning to room temperature, and obtaining the supernatant, of which the procedures were repeated two times. To the supernatant, ½ amount of a solution of phenol/chloroform was added, and the mixture was centrifuged to give a supernatant, which was added with an equal amount of chloroform, and the mixture was centrifuged to give a supernatant. To the supernatant, an equal amount of isopropanol containing 0.3 M sodium acetate was added, and the mixture was allowed to stand at room temperature for 30 minutes, after which the mixture was centrifuged to give a sediment of the whole RNAs. Seventy % ethanol was added to the sediment, and the mixture was again centrifuged to give a sediment, which was then dried and dissolved in water. mRNA was isolated from the whole RNAs as followings. In view of the fact that a poly A chain is attached to the 3′ terminus of mRNA, a polynucleotide having a poly T structure which was immobilized on the surface of latex beads was used to trap the mRNA, and then the mRNA was washed and eluted with spine column (Oligotex-dT30<Super>mRNA Purification Kit, Takara). Reverse transcription of the mRNA was conducted with a reverse transcriptase (Super Script II Reverse Transcriptase; catalogue No. 18064-014, GibcoBRL) using fluorescence-labeled nucleotides to give cDNAs that were introduced with Cy3-dUTP or Cy5-dUTP during the reverse transcription.
# The labeled cDNAs were dissolved in TE buffer (10mM Tris-HCl/1 mM EDTA, pH8.0), and the solution was dropped on the DNA chip containing the whole genes of yeast (DNA Chip Research Inc. Japan) so that the cDNAs were hybridized on the DNA chip at 65° C. for over 12 hours. The fluoresces intensity of the DNA chip was read with a scanner, and the ratio relative to the fluorescence intensity resulting from the absence of chemical substance was estimated as the following, which is shown in Tables 1 to 9: […]
structure (smiles),measurement,setting,value
"[Cl][Cd][Cl] [(2), CdCl2]",The level of expressed mRNA in the presence of chemical substance/The level of expressed mRNA in the absence of chemical substance,"yeast gene YAL053W, incubated two hours with chemical substance",0.9
same,The level of expressed mRNA in the presence of chemical substance/The level of expressed mRNA in the absence of chemical substance,yeast gene YBL048W,7.9
same,The level of expressed mRNA in the presence of chemical substance/The level of expressed mRNA in the absence of chemical substance,yeast gene YBL107C,1.1
same,The level of expressed mRNA in the presence of chemical substance/The level of expressed mRNA in the absence of chemical substance,"yeast gene YDL072C, incubated two hours with chemical substance",1.1
same,The level of expressed mRNA in the presence of chemical substance/The level of expressed mRNA in the absence of chemical substance,"yeast gene YDL204W, incubated two hours with chemical substance",1.9
same,The level of expressed mRNA in the presence of chemical substance/The level of expressed mRNA in the absence of chemical substance,"yeast gene YDL222C, incubated two hours with chemical substance",1.1
same,The level of expressed mRNA in the presence of chemical substance/The level of expressed mRNA in the absence of chemical substance,"yeast gene YDR330W, incubated two hours with chemical substance",1.5
same,The level of expressed mRNA in the presence of chemical substance/The level of expressed mRNA in the absence of chemical substance,"yeast gene YDR411C, incubated two hours with chemical substance",2.8
same,The level of expressed mRNA in the presence of chemical substance/The level of expressed mRNA in the absence of chemical substance,"yeast gene YDR511W, incubated two hours with chemical substance",1.7
same,The level of expressed mRNA in the presence of chemical substance/The level of expressed mRNA in the absence of chemical substance,"yeast gene YDR545W, incubated two hours with chemical substance",1.2
same,The level of expressed mRNA in the presence of chemical substance/The level of expressed mRNA in the absence of chemical substance,"yeast gene YEL001C, incubated two hours with chemical substance",1.0
same,The level of expressed mRNA in the presence of chemical substance/The level of expressed mRNA in the absence of chemical substance,"yeast gene YER004W, incubated two hours with chemical substance",1.5
same,The level of expressed mRNA in the presence of chemical substance/The level of expressed mRNA in the absence of chemical substance,"yeast gene YER035W, incubated two hours with chemical substance",1.6
same,The level of expressed mRNA in the presence of chemical substance/The level of expressed mRNA in the absence of chemical substance,"yeast gene YER079W, incubated two hours with chemical substance",1.6
same,The level of expressed mRNA in the presence of chemical substance/The level of expressed mRNA in the absence of chemical substance,"yeast gene YER106W, incubated two hours with chemical substance",0.7
same,The level of expressed mRNA in the presence of chemical substance/The level of expressed mRNA in the absence of chemical substance,"yeast gene YER158C, incubated two hours with chemical substance",0.9
same,The level of expressed mRNA in the presence of chemical substance/The level of expressed mRNA in the absence of chemical substance,"yeast gene YER163C, incubated two hours with chemical substance",2.4
same,The level of expressed mRNA in the presence of chemical substance/The level of expressed mRNA in the absence of chemical substance,"yeast gene YER175C, incubated two hours with chemical substance",1.2
same,The level of expressed mRNA in the presence of chemical substance/The level of expressed mRNA in the absence of chemical substance,"yeast gene YFL006W, incubated two hours with chemical substance",2.8
same,The level of expressed mRNA in the presence of chemical substance/The level of expressed mRNA in the absence of chemical substance,"yeast gene YFL010C, incubated two hours with chemical substance",4.8
same,The level of expressed mRNA in the presence of chemical substance/The level of expressed mRNA in the absence of chemical substance,yeast gene YFL024C,1.1
same,The level of expressed mRNA in the presence of chemical substance/The level of expressed mRNA in the absence of chemical substance,"yeast gene YFL032W, incubated two hours with chemical substance",1.5
same,The level of expressed mRNA in the presence of chemical substance/The level of expressed mRNA in the absence of chemical substance,"yeast gene YGL037C, incubated two hours with chemical substance",2.7
same,The level of expressed mRNA in the presence of chemical substance/The level of expressed mRNA in the absence of chemical substance,"yeast gene YGL047W, incubated two hours with chemical substance",1.9
same,The level of expressed mRNA in the presence of chemical substance/The level of expressed mRNA in the absence of chemical substance,"yeast gene YGL053W, incubated two hours with chemical substance",1.5
same,The level of expressed mRNA in the presence of chemical substance/The level of expressed mRNA in the absence of chemical substance,yeast gene YGL121C,5.0
same,The level of expressed mRNA in the presence of chemical substance/The level of expressed mRNA in the absence of chemical substance,"yeast gene YGL199C, incubated two hours with chemical substance",1.7
same,The level of expressed mRNA in the presence of chemical substance/The level of expressed mRNA in the absence of chemical substance,"yeast gene YGR101W, incubated two hours with chemical substance",1.3
same,The level of expressed mRNA in the presence of chemical substance/The level of expressed mRNA in the absence of chemical substance,yeast gene YGR110W,3.1
same,The level of expressed mRNA in the presence of chemical substance/The level of expressed mRNA in the absence of chemical substance,"yeast gene YGR130C, incubated two hours with chemical substance",0.7
same,The level of expressed mRNA in the presence of chemical substance/The level of expressed mRNA in the absence of chemical substance,"yeast gene YGR154C, incubated two hours with chemical substance",2.9
same,The level of expressed mRNA in the presence of chemical substance/The level of expressed mRNA in the absence of chemical substance,"yeast gene YGR221C, incubated two hours with chemical substance",2.2
same,The level of expressed mRNA in the presence of chemical substance/The level of expressed mRNA in the absence of chemical substance,"yeast gene YHR138C, incubated two hours with chemical substance",1.8
same,The level of expressed mRNA in the presence of chemical substance/The level of expressed mRNA in the absence of chemical substance,"yeast gene YHR199C, incubated two hours with chemical substance",2.0
same,The level of expressed mRNA in the presence of chemical substance/The level of expressed mRNA in the absence of chemical substance,"yeast gene YIL023C, incubated two hours with chemical substance",1.2
same,The level of expressed mRNA in the presence of chemical substance/The level of expressed mRNA in the absence of chemical substance,"yeast gene YIL041W, incubated two hours with chemical substance",1.2
same,The level of expressed mRNA in the presence of chemical substance/The level of expressed mRNA in the absence of chemical substance,"yeast gene YIL087C, incubated two hours with chemical substance",1.9
same,The level of expressed mRNA in the presence of chemical substance/The level of expressed mRNA in the absence of chemical substance,"yeast gene YJL057C, incubated two hours with chemical substance",1.2
same,The level of expressed mRNA in the presence of chemical substance/The level of expressed mRNA in the absence of chemical substance,"yeast gene YJL066C, incubated two hours with chemical substance",1.2
same,The level of expressed mRNA in the presence of chemical substance/The level of expressed mRNA in the absence of chemical substance,"yeast gene YJL082W, incubated two hours with chemical substance",0.8
same,The level of expressed mRNA in the presence of chemical substance/The level of expressed mRNA in the absence of chemical substance,"yeast gene YJL151C, incubated two hours with chemical substance",2.4
same,The level of expressed mRNA in the presence of chemical substance/The level of expressed mRNA in the absence of chemical substance,"yeast gene YJL152W, incubated two hours with chemical substance",1.5
same,The level of expressed mRNA in the presence of chemical substance/The level of expressed mRNA in the absence of chemical substance,"yeast gene YJL161W, incubated two hours with chemical substance",2.2
same,The level of expressed mRNA in the presence of chemical substance/The level of expressed mRNA in the absence of chemical substance,"yeast gene YJL171C, incubated two hours with chemical substance",0.7
same,The level of expressed mRNA in the presence of chemical substance/The level of expressed mRNA in the absence of chemical substance,"yeast gene YJR008W, incubated two hours with chemical substance",1.5
same,The level of expressed mRNA in the presence of chemical substance/The level of expressed mRNA in the absence of chemical substance,"yeast gene YJR054W, incubated two hours with chemical substance",0.9
same,The level of expressed mRNA in the presence of chemical substance/The level of expressed mRNA in the absence of chemical substance,yeast gene YKL071W,3.8
same,The level of expressed mRNA in the presence of chemical substance/The level of expressed mRNA in the absence of chemical substance,"yeast gene YKL086W, incubated two hours with chemical substance",1.1
same,The level of expressed mRNA in the presence of chemical substance/The level of expressed mRNA in the absence of chemical substance,"yeast gene YKL151C, incubated two hours with chemical substance",3.1
same,The level of expressed mRNA in the presence of chemical substance/The level of expressed mRNA in the absence of chemical substance,"yeast gene YKL153W, incubated two hours with chemical substance",1.4
